Test results reported in PubChem BioAssay (NCI).
Several values for one entry are separate records, joined by “and”; a condition that tells them apart may be missing. Equal values may be shown once.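 These data come from cells grown in 96-well plates and exposed to compound for 48 hours at five concentrations. Abbreviation: GI50, concentration required for 50% inhibition of growth. At the TGI there is no net growth.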

What was measured:
Experiment in all cases: NCI-60 cell line screen, 48 h
[1] = system: HOP-62 NSCLC
[2] = system: UACC-62 melanoma
[3] = system: HCT-15 colon
[4] = system: M14 melanoma
[5] = system: SK-MEL-28 melanoma
[6] = system: OVCAR-8 ovarian
[7] = system: SW-620 colon
[8] = system: NCI-H226 lung
[9] = system: TK-10 renal

Row | SMILES | TGI [1] | TGI [2] | TGI [3] | TGI [4] | TGI [5] | TGI [6] | TGI [7] | GI50 [1] [µM] | GI50 [2] [µM] | GI50 [3] [µM] | GI50 [8] [µM] | TGI [8] [µM] | GI50 [4] [µM] | GI50 [5] [µM] | GI50 [6] [µM] | GI50 [7] [µM] | TGI [9] | GI50 [9] [µM]
1 | CC(C)N(C(=O)C12C3C4C1C1C2C3C41C(O)C(C)(C)C)C(C)C (centres undefined) | > 50 µM | > 50 µM | > 50 µM | > 50 µM | > 50 µM | > 50 µM | > 50 µM | – | – | – | – | – | – | – | – | – | – | –
2 | CC[O-].CC[O-].O=C1C(=C([O-])c2ccccc2)C(=O)c2ccccc21.O=C1C(=C([O-])c2ccccc2)C(=O)c2ccccc21.[Ti+4] | > 100 µM | > 100 µM | > 100 µM | > 100 µM | > 10 µM | > 100 µM | > 100 µM | > 100 | > 100 | 52.9 | > 100 | > 100 | > 100 | > 10 | 92.7 | > 100 | – | –
3 | COc1ccc([C@H]2CC(=O)N3CCCC3N2)cc1 (some centres undefined) | > 100 µM | > 100 µM | > 100 µM | > 100 µM | > 100 µM | > 100 µM | > 100 µM | – | – | – | – | > 100 | – | – | – | – | > 100 µM | –
4 | CC(=O)N(CCN)CCN | > 10 µM | > 100 µM | > 100 µM | > 10 µM | > 10 µM | > 10 µM | > 10 µM | – | – | – | – | – | – | – | – | – | > 10 µM | –
5 | C=C(C)C1CC2C(C)=C(OC(C)=O)C1n1c(=O)c3cc4ccccc4cc3c(=O)n12 (centres undefined) | > 100 µM | > 100 µM | > 100 µM | > 100 µM | > 100 µM | > 100 µM | > 100 µM | – | – | – | – | > 100 | – | – | – | – | > 100 µM | –
6 | COc1cc(C2c3cc4c(cc3[C@@H](Nc3ccc(N(C)C)cc3)[C@H]3COC(=O)C23)OCO4)cc(OC)c1O (some centres undefined) | 0.385 µM and 1.23 µM | 1.53 µM and 2.28 µM | 8.16 µM and 11.3 µM | 8.61 µM and 16.2 µM | 14.9 µM and 28.2 µM | 7.97 µM and 24.9 µM | 14 µM and 16.5 µM | 0.187 | 0.347 | 1.82 | 0.3 | – | 1.44 | 12.1 | 1.78 | 1.92 | 11.6 µM and 27.2 µM | 8.85
7 | CC12CC3(C)CC(C)(C1)CC(N=[N+]=[N-])(C2)C3 | > 100 µM | > 100 µM | – | > 100 µM | > 100 µM | > 100 µM | > 100 µM | – | – | – | – | > 100 | – | – | – | – | > 100 µM | –
8 | Cc1cc(O)c2c(c1)C(O)(c1ccc3c(c1O)C(=O)c1c(O)cc(C)cc1C3(O)C1OC(CO)C(O)C(O)C1O)c1cccc(O)c1C2=O (centres undefined) | 28.9 µM | 25.3 µM | 26.1 µM | 30 µM | 28.9 µM | 34 µM | 34 µM | – | – | – | – | – | – | – | – | – | 27.2 µM | –
9 | Cc1cc(Cl)ccc1NC(=O)C(=O)Cc1nc2ccc(C(=O)c3ccccc3)cc2[nH]c1=O | > 100 µM | > 100 µM | > 100 µM | > 100 µM | > 100 µM | > 100 µM | > 100 µM | – | – | – | – | > 100 | – | – | – | – | > 100 µM | –
10 | C/C(=N/N(C=O)C[n+]1ccccc1)C(CN(CC(C)C)CC(C)C)C(=O)Nc1ccc(C)cc1C (centres undefined) | > 100 µM | > 100 µM | – | > 100 µM | > 100 µM | > 100 µM | > 100 µM | – | – | – | – | – | – | – | – | – | > 100 µM | –
11 | O=C(c1ccccc1)c1c(CC(O)c2cccnc2)n(C(=O)c2ccccc2)c2ccccc12 (centres undefined) | 30.4 µM | 34.3 µM | 60.3 µM | 33.5 µM | 31.5 µM | > 100 µM | 74.9 µM | – | – | – | – | 24.6 | – | – | – | – | 86.3 µM | –
12 | Cc1cc(C)c2c(c1)CN1CN2Cc2cc(C)cc(C)c21 | 53.2 µM | 35.9 µM | – | 51.8 µM | 44.4 µM | 39.5 µM | > 100 µM | – | – | – | – | 61.5 | – | – | – | – | 37.7 µM | –
13 | N=C(N)SCc1cn2ccccc2n1 | > 100 µM | – | > 100 µM | > 100 µM | > 100 µM | > 100 µM | > 100 µM | – | – | – | – | > 100 | – | – | – | – | > 100 µM | –
14 | O=C(CCc1nc(=S)[nH][nH]1)NC12CC3CC(CC(C3)C1)C2 | > 100 µM | > 100 µM | > 100 µM | > 100 µM | > 100 µM | > 100 µM | > 100 µM | – | – | – | – | > 100 | – | – | – | – | > 100 µM | –
15 | Cc1nc2c(n1CC(C)(C)C)C(=O)c1ccccc1C2=O | > 100 µM | > 100 µM | > 100 µM | > 100 µM | > 100 µM | > 100 µM | > 100 µM | – | – | – | – | > 100 | – | – | – | – | > 100 µM | –
16 | COC(=O)C1=CCON(c2ccccc2)C1c1ccccc1 (centres undefined) | > 100 µM | > 100 µM | > 100 µM | > 100 µM | > 100 µM | – | > 100 µM | – | – | – | – | > 100 | – | – | – | – | > 100 µM | –

Row | SMILES | TGI [1] | TGI [2] | TGI [3] | TGI [4] | TGI [5] | TGI [6] | TGI [7] | GI50 [1] [µM] | GI50 [2] [µM] | GI50 [3] [µM] | GI50 [8] [µM] | TGI [8] [µM] | GI50 [4] [µM] | GI50 [5] [µM] | GI50 [6] [µM] | GI50 [7] [µM] | TGI [9] | GI50 [9] [µM]
17 | O=c1nc(-c2ccccc2)c2c3c(cccn13)CCC2 | > 100 µM | > 100 µM | > 100 µM | > 100 µM | > 100 µM | > 100 µM | > 100 µM | – | – | – | – | > 100 | – | – | – | – | > 100 µM | –
18 | Fc1cccc(Cl)c1C1SCc2nc3ccccc3n21 (centres undefined) | > 100 µM | 37.5 µM | > 100 µM | > 100 µM | – | > 100 µM | > 100 µM | – | – | – | – | > 100 | – | – | – | – | > 100 µM | –
19 | O=C1[C@@H](c2ccc(Cl)cc2)[C@H]2CC=C[C@H]2N1O | > 100 µM | > 100 µM | > 100 µM | > 100 µM | > 100 µM | > 100 µM | > 100 µM | – | – | – | – | > 100 | – | – | – | – | > 100 µM | –
20 | O=C1c2ccccc2N2OC3(N4CCCC4)CCCC3C12c1ccccc1 (centres undefined) | > 100 µM | > 100 µM | > 100 µM | > 100 µM | > 100 µM | > 100 µM | > 100 µM | – | – | – | – | > 100 | – | – | – | – | – | –
21 | CC(C)c1cccc(C(C)C)c1NC(=O)C(=O)C(C(=O)c1ccccc1-c1ccccc1)C1OC(=O)c2ccccc21 (centres undefined) | – | 44.1 µM | 44.5 µM | – | 71.9 µM | 35 µM | 37.8 µM | – | – | – | – | – | – | – | – | – | 46.1 µM | –
22 | COC(=O)c1nc(NN)[nH]c(=O)c1CCCCCc1c(C(=O)OC)[nH]c(NN)cc1=O | > 100 µM | > 100 µM | > 100 µM | > 100 µM | > 100 µM | > 100 µM | > 100 µM | – | – | – | – | > 100 | – | – | – | – | > 100 µM | –
23 | CCc1ccccc1NC(=O)C(=O)C(C(=O)c1ccc(OC)cc1)c1ccc(OC)cc1 (centres undefined) | > 100 µM | > 100 µM | > 100 µM | > 100 µM | – | > 100 µM | > 100 µM | – | – | – | – | > 100 | – | – | – | – | > 100 µM | –
24 | Cc1cc([N+](=O)[O-])c(C)c2c1[nH]c1ccc(/C(CCC3CCCC3)=N\N)cc12 | 36.7 µM | – | 29.2 µM | 39.5 µM | 34 µM | 75 µM | 33.5 µM | – | – | – | – | 41.5 | – | – | – | – | 27.3 µM | –
25 | Clc1ccc([O][In]([O]c2ccc(Cl)cn2)[O]c2ccc(Cl)cn2)nc1 | – | > 100 µM | > 100 µM | > 100 µM | > 100 µM | > 100 µM | > 100 µM | – | > 100 | > 100 | > 100 | > 100 | > 100 | > 100 | > 100 | > 100 | > 100 µM | > 100
26 | COc1cc2nncc(Sc3cnnc4ccccc34)c2cc1OC | > 100 µM | > 100 µM | 72.2 µM | > 100 µM | 60.9 µM | – | 41.3 µM | – | – | – | – | 67.3 | – | – | – | – | 81.3 µM | –
27 | CC1(C)C(=O)C(O)=CC2C1=CCC1C2(C)C(=O)CC2(C)C(C(C)(O)C(=O)CC(O)C(C)(C)O)C(O)CC12C (centres undefined) | 11.5 µM | 29.7 µM | > 88.7 µM | 23.8 µM | 7.43 µM | > 100 µM | > 50.7 µM | – | – | – | – | 7.31 | – | – | – | – | 5.94 µM | –
28 | CCC1(Br)C(=O)NC(=O)N(C2CC(O)C(CO)O2)C1N=[N+]=[N-] (centres undefined) | > 100 µM | > 100 µM | – | > 100 µM | > 100 µM | > 100 µM | > 100 µM | – | – | – | – | – | – | – | – | – | > 100 µM | –
29 | O=[N+]([O-])c1ccc(N=Nc2c(O)[nH]c3ccc([N+](=O)[O-])cc23)cc1 | 38.3 µM | 36.5 µM | > 100 µM | 38 µM | 47.4 µM | 35 µM | 29.5 µM | – | – | – | – | 7 | – | – | – | – | 54.7 µM | –
30 | C[n+]1cc2c3c(ccc2c2ccc4cc5c(cc4c21)OCO5)OCO3 | 1.44 µM | 2.08 µM | 2.29 µM | 1.6 µM | 2.48 µM | 1.4 µM | 0.36 µM | 0.349 | 0.744 | 0.631 | 1.54 | 2.98 | 0.412 | 1.22 | 0.326 | 0.174 | 2.65 µM | 1.33
31 | CC(C)N(C(C)C)[PH+]1O[PH+](N(C(C)C)C(C)C)O[PH+](N(C(C)C)C(C)C)O[PH+](N(C(C)C)C(C)C)O[PH+](N(C(C)C)C(C)C)O1.[C-]#[O+].[C-]#[O+].[C-]#[O+].[C-]#[O+].[C-]#[O+].[C-]#[O+].[C-]#[O+].[Cr].[Cr] (centres undefined) | > 100 µM | > 100 µM | > 100 µM | > 100 µM | > 100 µM | > 100 µM | > 100 µM | > 100 | > 100 | > 100 | > 100 | > 100 | > 100 | > 100 | > 100 | > 100 | > 100 µM | > 100
